Calls of active or inactive are those of the source. The rule behind the calls is not given here.
Columns and labels:
[1] = biological target: T1, Glucose-dependent insulinotropic receptor (Homo sapiens) (UniProt Q8TDV5); experiment: Activation of human GPR119 expressed in CHOK1 cells co-expressing CRE-luciferase at 1 uM after 6 hrs by luciferase reporter gene assay relative to GSK1292263; format: functional, cell-based
T1 sequence (whole entry): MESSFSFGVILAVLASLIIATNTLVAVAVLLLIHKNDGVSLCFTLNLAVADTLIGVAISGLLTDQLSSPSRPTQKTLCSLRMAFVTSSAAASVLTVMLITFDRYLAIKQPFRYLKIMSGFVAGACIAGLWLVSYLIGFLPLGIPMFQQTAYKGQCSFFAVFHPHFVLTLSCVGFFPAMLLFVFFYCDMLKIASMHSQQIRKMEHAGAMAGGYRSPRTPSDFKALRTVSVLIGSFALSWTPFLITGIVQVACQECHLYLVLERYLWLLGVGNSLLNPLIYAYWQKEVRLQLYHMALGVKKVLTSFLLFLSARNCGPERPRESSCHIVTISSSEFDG

[2] = biological target: T2, Glucose-dependent insulinotropic receptor (Homo sapiens, UniProt Q8TDV5); experiment: Agonist activity at human GPR119 expressed in CHOK1 cells co-expressing CRE-luciferase after 6 hrs by luciferase reporter gene assay; format: functional, cell-based
T2 sequence (Q8TDV5 whole entry): T1 sequence (whole entry)

[3] = Metabolic stability in human liver microsomes assessed as compound remaining after 30 mins; format: ADME, microsome; settings: read-out: Stability
[4] = Metabolic stability in rat liver microsomes assessed as compound remaining after 30 mins; format: ADME, microsome; settings: read-out: Stability
Cytochrome P450 1A2 = biological target: T3, Cytochrome P450 1A2 (Homo sapiens, UniProt P05177); experiment: Inhibition of CYP1A2 (unknown origin); format: ADME
T3 sequence (P05177 whole entry): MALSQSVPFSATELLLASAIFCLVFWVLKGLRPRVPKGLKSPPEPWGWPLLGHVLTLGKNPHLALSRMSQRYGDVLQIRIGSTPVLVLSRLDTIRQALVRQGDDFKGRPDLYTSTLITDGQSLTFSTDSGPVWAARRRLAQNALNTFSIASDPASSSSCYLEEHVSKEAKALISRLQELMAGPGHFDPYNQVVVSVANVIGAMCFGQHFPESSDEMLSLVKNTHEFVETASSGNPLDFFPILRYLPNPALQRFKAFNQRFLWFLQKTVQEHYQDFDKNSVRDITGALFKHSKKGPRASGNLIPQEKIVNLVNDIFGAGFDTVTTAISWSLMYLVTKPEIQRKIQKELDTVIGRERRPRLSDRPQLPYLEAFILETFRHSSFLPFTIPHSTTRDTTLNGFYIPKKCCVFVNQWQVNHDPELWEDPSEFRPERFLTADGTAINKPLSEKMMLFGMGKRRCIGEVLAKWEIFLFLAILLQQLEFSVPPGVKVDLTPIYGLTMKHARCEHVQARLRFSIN

Cytochrome P450 2A6 = biological target: T4, Cytochrome P450 2A6 (Homo sapiens, UniProt P11509); experiment: Inhibition of CYP2A6 (unknown origin); format: ADME
T4 sequence (P11509 whole entry): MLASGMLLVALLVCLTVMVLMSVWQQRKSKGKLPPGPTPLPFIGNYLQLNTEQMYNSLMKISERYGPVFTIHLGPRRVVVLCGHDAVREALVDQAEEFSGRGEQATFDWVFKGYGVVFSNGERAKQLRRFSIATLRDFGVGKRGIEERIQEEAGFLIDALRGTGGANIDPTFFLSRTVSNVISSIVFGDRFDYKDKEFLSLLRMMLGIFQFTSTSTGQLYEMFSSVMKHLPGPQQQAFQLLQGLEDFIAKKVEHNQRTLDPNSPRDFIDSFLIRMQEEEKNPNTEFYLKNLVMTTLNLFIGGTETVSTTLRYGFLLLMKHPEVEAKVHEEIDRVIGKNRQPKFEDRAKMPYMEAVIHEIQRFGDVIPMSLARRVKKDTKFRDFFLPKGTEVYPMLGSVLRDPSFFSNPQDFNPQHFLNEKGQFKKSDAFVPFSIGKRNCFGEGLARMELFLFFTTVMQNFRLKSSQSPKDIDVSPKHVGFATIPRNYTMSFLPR

Cytochrome P450 2C19 = Cytochrome P450 2C19 (Homo sapiens, UniProt P33261); experiment: Inhibition of CYP2C19 (unknown origin); format: ADME
Cytochrome P450 2C19, sequence (P33261 whole entry): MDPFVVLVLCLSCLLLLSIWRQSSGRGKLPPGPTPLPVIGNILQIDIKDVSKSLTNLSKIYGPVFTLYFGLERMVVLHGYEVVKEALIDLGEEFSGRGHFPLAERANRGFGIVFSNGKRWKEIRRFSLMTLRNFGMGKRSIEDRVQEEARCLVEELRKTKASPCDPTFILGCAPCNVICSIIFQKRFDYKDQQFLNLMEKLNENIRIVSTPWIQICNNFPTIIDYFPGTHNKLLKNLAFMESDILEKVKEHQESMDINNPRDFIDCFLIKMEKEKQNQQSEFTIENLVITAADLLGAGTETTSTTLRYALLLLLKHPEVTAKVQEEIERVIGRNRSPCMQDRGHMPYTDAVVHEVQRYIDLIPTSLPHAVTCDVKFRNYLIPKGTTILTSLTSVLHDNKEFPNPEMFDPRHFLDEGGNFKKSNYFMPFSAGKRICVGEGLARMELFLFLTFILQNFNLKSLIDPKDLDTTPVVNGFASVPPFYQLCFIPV

Cytochrome P450 2D6 = Cytochrome P450 2D6 (Homo sapiens, UniProt P10635); experiment: Inhibition of CYP2D6 (unknown origin); format: ADME
Cytochrome P450 2D6, sequence (P10635 whole entry): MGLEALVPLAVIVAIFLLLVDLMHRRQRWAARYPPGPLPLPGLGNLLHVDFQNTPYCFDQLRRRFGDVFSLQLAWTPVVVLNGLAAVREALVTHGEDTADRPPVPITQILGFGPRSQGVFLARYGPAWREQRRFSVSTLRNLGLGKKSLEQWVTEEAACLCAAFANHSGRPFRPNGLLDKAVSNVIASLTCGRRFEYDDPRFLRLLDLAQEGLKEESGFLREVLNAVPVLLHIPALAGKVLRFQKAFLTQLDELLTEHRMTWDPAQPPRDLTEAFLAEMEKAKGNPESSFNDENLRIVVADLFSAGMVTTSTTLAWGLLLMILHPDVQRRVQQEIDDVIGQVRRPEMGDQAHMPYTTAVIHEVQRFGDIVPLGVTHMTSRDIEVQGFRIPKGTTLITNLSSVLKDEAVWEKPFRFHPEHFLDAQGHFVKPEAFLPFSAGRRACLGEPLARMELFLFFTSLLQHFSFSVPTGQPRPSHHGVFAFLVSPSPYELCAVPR

Cytochrome P450 3A4 = Cytochrome P450 3A4 (Homo sapiens, UniProt P08684); experiment: Inhibition of CYP3A4 (unknown origin); format: ADME
Cytochrome P450 3A4, sequence (P08684 whole entry): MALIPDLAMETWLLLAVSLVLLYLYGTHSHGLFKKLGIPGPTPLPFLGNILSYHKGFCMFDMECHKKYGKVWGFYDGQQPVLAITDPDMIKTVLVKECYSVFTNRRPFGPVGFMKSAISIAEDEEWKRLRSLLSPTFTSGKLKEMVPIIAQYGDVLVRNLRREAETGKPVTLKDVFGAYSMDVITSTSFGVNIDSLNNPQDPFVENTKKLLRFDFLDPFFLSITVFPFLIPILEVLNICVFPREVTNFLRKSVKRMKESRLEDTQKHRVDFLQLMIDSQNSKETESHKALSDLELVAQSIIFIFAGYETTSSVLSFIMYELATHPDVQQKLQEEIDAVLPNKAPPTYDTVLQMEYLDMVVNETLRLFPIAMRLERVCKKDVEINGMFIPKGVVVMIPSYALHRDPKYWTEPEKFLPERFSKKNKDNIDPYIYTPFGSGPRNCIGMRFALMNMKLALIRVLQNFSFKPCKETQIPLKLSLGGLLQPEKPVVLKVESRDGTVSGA

hERG (KCNH2) = hERG (KCNH2) (Homo sapiens, UniProt Q12809); experiment: Inhibition of human ERG at 10 uM
hERG (KCNH2), sequence (Q12809 whole entry): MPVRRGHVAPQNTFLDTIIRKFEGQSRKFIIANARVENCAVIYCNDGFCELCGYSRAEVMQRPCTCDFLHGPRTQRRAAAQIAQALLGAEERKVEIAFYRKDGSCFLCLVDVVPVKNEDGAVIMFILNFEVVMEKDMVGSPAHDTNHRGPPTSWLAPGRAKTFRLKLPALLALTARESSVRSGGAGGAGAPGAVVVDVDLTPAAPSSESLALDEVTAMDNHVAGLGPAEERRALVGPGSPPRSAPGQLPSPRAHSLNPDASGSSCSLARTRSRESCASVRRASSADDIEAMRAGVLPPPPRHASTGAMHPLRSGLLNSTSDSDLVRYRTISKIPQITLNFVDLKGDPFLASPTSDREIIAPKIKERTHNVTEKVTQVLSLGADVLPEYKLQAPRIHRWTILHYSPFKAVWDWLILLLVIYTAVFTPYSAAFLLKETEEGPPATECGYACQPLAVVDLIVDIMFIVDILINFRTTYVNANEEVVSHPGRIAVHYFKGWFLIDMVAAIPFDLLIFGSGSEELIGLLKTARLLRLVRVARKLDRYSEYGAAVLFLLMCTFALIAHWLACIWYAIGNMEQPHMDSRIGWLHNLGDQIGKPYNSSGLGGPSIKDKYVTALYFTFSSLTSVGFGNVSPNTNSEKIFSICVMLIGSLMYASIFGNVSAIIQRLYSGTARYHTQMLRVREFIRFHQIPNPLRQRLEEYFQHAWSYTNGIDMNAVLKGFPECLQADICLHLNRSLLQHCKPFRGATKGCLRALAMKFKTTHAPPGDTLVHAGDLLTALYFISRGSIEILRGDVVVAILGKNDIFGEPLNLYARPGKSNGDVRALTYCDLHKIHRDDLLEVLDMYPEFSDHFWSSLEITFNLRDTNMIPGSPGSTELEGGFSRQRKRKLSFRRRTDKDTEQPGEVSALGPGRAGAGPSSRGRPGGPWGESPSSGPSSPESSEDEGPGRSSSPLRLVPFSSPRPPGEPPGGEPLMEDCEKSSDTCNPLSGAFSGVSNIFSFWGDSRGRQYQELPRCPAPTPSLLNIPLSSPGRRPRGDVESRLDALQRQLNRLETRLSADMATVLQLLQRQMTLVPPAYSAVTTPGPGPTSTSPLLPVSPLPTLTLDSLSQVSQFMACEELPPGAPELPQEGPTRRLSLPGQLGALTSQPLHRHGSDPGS

Vero = experiment: Cytotoxicity against African green monkey Vero cells; format: cell-based; settings: Chlorocebus sabaeus
L929 = experiment: Cytotoxicity against mouse L929 cells; format: cell-based
NIH3T3 = experiment: Cytotoxicity against mouse NIH/3T3 cells; format: cell-based
HFL1 = experiment: Cytotoxicity against HFL1 cells; format: cell-based; settings: Homo sapiens
CHO-K1 = experiment: Cytotoxicity against CHOK1 cells; format: cell-based; settings: Cricetulus griseus
Mus musculus = experiment: Antidiabetic activity in C57BL/6 mouse assessed as decrease in plasma glucose AUC at 30 mg/kg, po pretreated for 30 mins followed by glucose challenge measured up to 120 mins by oGTT assay; format: functional, organism-based

Compound | Activity [1] [%] | EC50 [2] [nM] | also measured
CCc1cnc(N2CCC(c3nc(COc4ccc(/C=C5\CC(=O)NC5=O)cc4F)cs3)CC2)nc1 | 94 | 49 | remaining at 0.5 h [3]: 48.9%; remaining at 0.5 h [4]: 33%; INH (Cytochrome P450 1A2): > 100 µM; INH (Cytochrome P450 2A6): > 100 µM; INH (Cytochrome P450 2C19): > 100 µM; INH (Cytochrome P450 2D6): > 100 µM; INH (Cytochrome P450 3A4): > 100 µM; inhibition at 10 µM (hERG (KCNH2)): 5.3%; IC50 (Vero): > 100000 nM; IC50 (L929): > 100000 nM; IC50 (NIH3T3): > 100000 nM; IC50 (HFL1): > 100000 nM; IC50 (CHO-K1): > 100000 nM; Activity (Mus musculus): Active
CC(C)(C)OC(=O)N1CCC(c2nc(COc3ccc(/C=C4\CC(=O)NC4=O)cc3F)cs2)CC1 | 69 | 157 | 
CC(C)(O)CN1CCC(c2nc(COc3c(F)cc(/C=C4\CC(=O)NC4=O)cc3F)cs2)CC1 | 32 |  | 
NC(=O)CCc1cnc(N2CCC(c3nc(COc4ccc(-n5cnnn5)cc4)cs3)CC2)nc1 | 22 |  | 
CCc1cnc(N2CCC(c3nc(COc4ccc(/C=C5\CCNC5=O)cc4F)cs3)CC2)nc1 | 65 | 100 | 
CCc1cnc(N2CCC(c3nc(COc4ccc(/C=C5\CC(=O)N(CCN6CCOCC6)C5=O)cc4F)cs3)CC2)nc1 | 49 |  | 
CC(C)(C)OC(=O)NCCNC(=O)CCc1cnc(N2CCC(c3nc(COc4ccc(-n5cnnn5)cc4)cs3)CC2)nc1 | 30 |  | 
[N-]=[N+]=NCCOCCOCCOCCNC(=O)CCc1cnc(N2CCC(c3nc(COc4ccc(-n5cnnn5)cc4)cs3)CC2)nc1 | 25 |  | 
CCc1cnc(N2CCC(c3nc(COc4ccc(/C=C5\CC(=O)N(c6ccccc6)C5=O)cc4F)cs3)CC2)nc1 | 67 | 82 | 
CC(C)(C)OC(=O)N1CCC(c2nc(COc3ccc(-n4cnnn4)cc3)cs2)CC1 | 118 | 103 | 
CCc1cnc(N2CCC(c3nc(COc4ccc(-n5cnnn5)cc4)cs3)CC2)nc1 [MBX-2982] | 91 | 87 | remaining at 0.5 h [3]: 7.8%; remaining at 0.5 h [4]: 20.6%; INH (Cytochrome P450 1A2): > 100 µM; INH (Cytochrome P450 2A6): 3.53 µM; INH (Cytochrome P450 2C19): > 100 µM; INH (Cytochrome P450 2D6): > 100 µM; INH (Cytochrome P450 3A4): 2.24 µM; inhibition at 10 µM (hERG (KCNH2)): 10.5%; IC50 (Vero): > 100000 nM; IC50 (L929): > 100000 nM; IC50 (NIH3T3): > 100000 nM; IC50 (HFL1): > 100000 nM; IC50 (CHO-K1): > 100000 nM; Activity (Mus musculus): Active
O=C(O)CCc1cnc(N2CCC(c3nc(COc4ccc(-n5cnnn5)cc4)cs3)CC2)nc1 | 29 |  | 
CCc1cnc(N2CCC(c3nc(COc4ccc(/C=C/C(=O)O)cc4F)cs3)CC2)nc1 | 55 |  | 
CCc1cnc(N2CCC(c3nc(COc4ccc(/C=C5\SC(=S)N(N)C5=O)cc4F)cs3)CC2)nc1 | 43 |  | 
CCc1cnc(N2CCC(c3nc(COc4ccc(/C=C5\CC(=O)N(CCNC(=O)OC(C)(C)C)C5=O)cc4F)cs3)CC2)nc1 | 63 |  | 
CC(C)(C)OC(=O)N1CCC(c2nc(COc3c(F)cc(/C=C4\CC(=O)NC4=O)cc3F)cs2)CC1 | 41 |  | 
CC(C)(F)CN1CCC(c2nc(COc3ccc(/C=C4\CC(=O)NC4=O)cc3)cs2)CC1 | 48 |  | 
N=C(N)NC(=N)N1CCC(c2nc(COc3ccc(-n4cnnn4)cc3)cs2)CC1 | 20 |  | 
CCc1cnc(N2CCC(c3nc(COc4ccc(/C=C5\SC(=S)NC5=O)cc4F)cs3)CC2)nc1 | 39 |  | 
CCc1cnc(N2CCC(c3nc(COc4ccc(/C=C5\CC(=O)NC5=O)cc4C)cs3)CC2)nc1 | 90 | 18 | remaining at 0.5 h [3]: 17.1%; remaining at 0.5 h [4]: 32.4%; INH (Cytochrome P450 1A2): > 100 µM; INH (Cytochrome P450 2A6): > 100 µM; INH (Cytochrome P450 2C19): > 100 µM; INH (Cytochrome P450 2D6): > 100 µM; INH (Cytochrome P450 3A4): > 13.8 µM; inhibition at 10 µM (hERG (KCNH2)): 3.3%; IC50 (Vero): > 100000 nM; IC50 (L929): > 100000 nM; IC50 (NIH3T3): > 100000 nM; IC50 (HFL1): > 100000 nM; IC50 (CHO-K1): > 100000 nM; Activity (Mus musculus): Active

Compound | Activity [1] [%] | EC50 [2] [nM] | also measured
Cc1cc(/C=C2\CC(=O)NC2=O)ccc1OCc1csc(C2CCN(CC(C)(C)F)CC2)n1 | 46 |  | 
CCc1cnc(N2CCC(c3nc(COc4ccc(/C=C5\CC(=O)NC5=O)cc4)cs3)CC2)nc1 | 71 | 182 | 
Cc1cc(/C=C2\CC(=O)NC2=O)ccc1OCc1csc(C2CCN(C(=O)OC(C)(C)C)CC2)n1 | 81 | 19 | 
CC(C)(F)CN1CCC(c2nc(COc3c(F)cc(/C=C4\CC(=O)NC4=O)cc3F)cs2)CC1 | 42 |  | 
CC(C)(F)CN1CCC(c2nc(COc3ccc(/C=C4\CC(=O)NC4=O)cc3F)cs2)CC1 | 53 |  | 
C[N+](C)(C)CCNC(=O)CCc1cnc(N2CCC(c3nc(COc4ccc(-n5cnnn5)cc4)cs3)CC2)nc1 | 28 |  | 
NCCNC(=O)CCc1cnc(N2CCC(c3nc(COc4ccc(-n5cnnn5)cc4)cs3)CC2)nc1 | 27 |  | 
CCOC(=O)CCc1cnc(N2CCC(c3nc(COc4ccc(-n5cnnn5)cc4)cs3)CC2)nc1 | 34 |  | 
CC(C)(O)CN1CCC(c2nc(COc3ccc(/C=C4\CC(=O)NC4=O)cc3)cs2)CC1 | 27 |  | 
CC(C)(O)CN1CCC(c2nc(COc3ccc(/C=C4\CC(=O)NC4=O)cc3F)cs2)CC1 | 31 |  | 
O=C(CCc1cnc(N2CCC(c3nc(COc4ccc(-n5cnnn5)cc4)cs3)CC2)nc1)NOCc1ccccc1 | 26 |  | 
CCc1cnc(N2CCC(c3nc(COc4c(F)cc(/C=C5\CC(=O)NC5=O)cc4F)cs3)CC2)nc1 | 59 | 211 | 
CCc1cnc(N2CCC(c3nc(COc4ccc(/C=C5\SC(=O)NC5=O)cc4F)cs3)CC2)nc1 | 60 | 780 | 
CCc1cnc(N2CCC(c3nc(COc4ccc(/C=C5\CC(=O)N(CCN)C5=O)cc4F)cs3)CC2)nc1 | 51 |  | 
CC(C)(C)OC(=O)N1CCC(c2nc(COc3ccc(/C=C4\CC(=O)NC4=O)cc3)cs2)CC1 | 57 |  | 
Cc1cc(/C=C2\CC(=O)NC2=O)ccc1OCc1csc(C2CCN(CC(C)(C)O)CC2)n1 | 36 |  | 
CCc1cnc(N2CCC(c3nc(COc4ccc(/C=C5\CC(=S)N(CC(=O)O)C5=O)cc4F)cs3)CC2)nc1 | 32 |  | 
NCCOCCOCCOCCNC(=O)CCc1cnc(N2CCC(c3nc(COc4ccc(-n5cnnn5)cc4)cs3)CC2)nc1 | 28 |  | 
CCc1cnc(N2CCC(c3nc(COc4ccc(/C=C5\CC(=O)N(CC6CCOCC6)C5=O)cc4F)cs3)CC2)nc1 | 61 | 240 | 

Source: ChEMBL document CHEMBL4177668, “Synthesis and biological evaluation of thiazole derivatives as GPR119 agonists” (Bioorg Med Chem Lett, 2017)
